Measurements reported in PubChem BioAssay AID1963986 (Molecular Pharmacology Branch, DTP, NCI, 2024).

Test system: 171881-019-R-J1-PDC tumor spheroid viability
Test: Anticancer human tumor 171881-019-R-J1-PDC patient-derived invasive breast carcinoma cell line growth inhibition [PI3K]
Details: spheroids with HUVEC and MSC; for IC50: curve of first compound; for viability, T/C: stronger effect = lower value
Text: Combinatorial screen of targeted agents with the PI3K inhibitors inavolisib, alpelisib, duvelisib, and copanlisib in multi-cell type tumor spheroids
A high-throughput screen of multi-cell type tumor spheroids was designed to identify active combinations of targeted small molecules and PI3K pathway inhibitors. Complex spheroids include a stromal component modeled by human endothelial cells (HUVEC) and fibroblasts modeled by human mesenchymal stem cells (MSCs). The concentration ranges selected for each drug and investigational agent were based upon clinically achievable concentrations if the clinical Cmax of the agent was known.
Compounds. The drugs and investigational agents: inavolisib (NSC800729), alpelisib (NSC765974), duvelisib (NSC772469), copanlisib (NSC816437), ipatasertib (NSC767898), afuresertib (NSC778305), talazoparib (NSC767125), sapanisertib (NSC764658), selumetinib (NSC741078), tovorafenib (DAY101, NSC766906), vemurafenib (NSC761431), ravoxertinib (NSC781343), sotorasib (NSC818433), MRTX1133 (NSC 836407), abemaciclib (NSC 768073), palbociclib (NSC758247), venetoclax (NSC 766270), SY5609 (NSC837396), enzalutamide (NSC755605), and darolutamide (NSC825331), were obtained from the National Cancer Institute (NCI) Developmental Therapeutics Program Chemical Repository. The FDA-approved anticancer drug set is available from the NCI Developmental Therapeutics Program. […] The stock solutions were prepared in dimethyl sulfoxide (DMSO, Sigma-Aldrich, St. Louis, MO, cat. D2650) at 800-fold the tested concentration and stored at -70 degrees C prior to their use. All drugs and investigational agents were tested over a range starting from a high concentration at or near the clinical Cmax and decreasing in half-log increments. If the clinical Cmax for an agent had not been determined, the highest concentration tested was 10 microM.
Cell Culture. All cells were maintained in an incubator at 37 degrees C and 5% CO2 with 95% humidity. The PDC lines were cultured according to standard operating procedures established by the NCI PDMR (https://pdmr.cancer.gov/sops/default.htm). All PDCs were thawed and cultured in Matrigel-coated flasks prepared with a working solution of 1X Ham's F-12 nutrient mix, without supplementation (Invitrogen, Waltham, MA, cat. 11765054), 100 U/mL penicillin-streptomycin (Invitrogen, cat. 15140122), and 2.5% Matrigel (Corning Inc., Corning, NY, cat. 354248) for the first three passages. The 354836-022-R-J1-PDC, 475296-252-R-J1-PDC, and 997726-040-R-J2-PDC lines were cultured in 6A media, which includes advanced DMEM/F-12 (Thermo Fisher Scientific, cat. 12634028), 10 mM HEPES (Thermo Fisher Scientific, cat. 15630080), 1X GlutaMAX supplement (Thermo Fisher Scientific, cat. 35050061), 0.1 mg/mL primocin (InvivoGen, San Diego, CA, cat. ant-pm-2), 10% defined fetal bovine serum, heat inactivated (HyClone Laboratories Inc., Logan, UT, cat. SH30070.03HI), 50% L-WRN conditioned media (ATCC, cat. CRL-3276), 1.25 mM N-Acetyl-L-cysteine (Sigma-Aldrich, cat. A9165), 10 mM nicotinamide (Sigma-Aldrich, cat. N0636), 1X B-27 supplement (Thermo Fisher Scientific, cat. 17504044), 1X N-2 supplement (Thermo Fisher Scientific, cat. 17502048), and 10 microM Y-27632 dihydrochloride (Tocris Bioscience, Bristol, United Kingdom, cat. 1254). The 624824-186-R-J2-PDC line was cultured in 6C/Colon 1B media, which includes all 6A media components plus 50 ng/mL human EGF recombinant protein (Thermo Fisher Scientific, cat. PHG0311). […]
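Also: spheroids exposed to compound for 7 days before viability read.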
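For viability, T/C in this document: 100% = DMSO vehicle-treated spheroids.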

Compound `Cn1ncnc1[C@H]1c2n[nH]c(=O)c3cc(F)cc(c23)N[C@@H]1c1ccc(F)cc1` + Cc1nc(NC(=O)N2CCCC2C(N)=O)sc1-c1ccnc(C(C)(C)C(F)(F)F)c1 has an IC50 (second compound 0.0316 µM) of over 100 nM, an IC50 (second compound 0.1 µM) of over 100 nM and an IC50 (second compound 0.316 µM) of over 100 nM. For the same compound, the IC50 (second compound 1 µM) was under 0.316 nM, the IC50 (second compound 3.16 µM) was under 0.316 nM and the IC50 (second compound 10 µM) was under 0.316 nM. It also gave a viability, T/C (second compound 0.0316 µM, first compound 0.000316 µM) of 96.5%, a viability, T/C (second compound 0.0316 µM, first compound 0.001 µM) of 91% and a viability, T/C (second compound 0.0316 µM, first compound 0.00316 µM) of 84.8%. The viability, T/C (second compound 0.0316 µM, first compound 0.01 µM) was 88.8%, the viability, T/C (second compound 0.0316 µM, first compound 0.0316 µM) was 86.3% and the viability, T/C (second compound 0.0316 µM, first compound 0.1 µM) was 79.8%. It also gave a viability, T/C (second compound 0.1 µM, first compound 0.000316 µM) of 86.7%, a viability, T/C (second compound 0.1 µM, first compound 0.001 µM) of 65.1% and a viability, T/C (second compound 0.1 µM, first compound 0.00316 µM) of 76.4%. For the same compound, the viability, T/C (second compound 0.1 µM, first compound 0.01 µM) was 73.1%, the viability, T/C (second compound 0.1 µM, first compound 0.0316 µM) was 74.1% and the viability, T/C (second compound 0.1 µM, first compound 0.1 µM) was 66.6%. The viability, T/C (second compound 0.316 µM, first compound 0.000316 µM) was 50.2%, the viability, T/C (second compound 0.316 µM, first compound 0.001 µM) was 56.3% and the viability, T/C (second compound 0.316 µM, first compound 0.00316 µM) was 51.6%. For the same compound, the viability, T/C (second compound 0.316 µM, first compound 0.01 µM) was 56.4%, the viability, T/C (second compound 0.316 µM, first compound 0.0316 µM) was 55% and the viability, T/C (second compound 0.316 µM, first compound 0.1 µM) was 46.6%. For the same compound, the viability, T/C (second compound 1 µM, first compound 0.000316 µM) was 32.8%, the viability, T/C (second compound 1 µM, first compound 0.001 µM) was 32.8% and the viability, T/C (second compound 1 µM, first compound 0.00316 µM) was 29.4%. For the same compound, the viability, T/C (second compound 1 µM, first compound 0.01 µM) was 31.6%, the viability, T/C (second compound 1 µM, first compound 0.0316 µM) was 29.6% and the viability, T/C (second compound 1 µM, first compound 0.1 µM) was 27.4%. For the same compound, the viability, T/C (second compound 3.16 µM, first compound 0.000316 µM) was 13.4%, the viability, T/C (second compound 3.16 µM, first compound 0.001 µM) was 14% and the viability, T/C (second compound 3.16 µM, first compound 0.00316 µM) was 12.8%. For the same compound, the viability, T/C (second compound 3.16 µM, first compound 0.01 µM) was 13.4%, the viability, T/C (second compound 3.16 µM, first compound 0.0316 µM) was 13.3% and the viability, T/C (second compound 3.16 µM, first compound 0.1 µM) was 12.1%. The viability, T/C (second compound 10 µM, first compound 0.000316 µM) was 3.72%, the viability, T/C (second compound 10 µM, first compound 0.001 µM) was 3.81% and the viability, T/C (second compound 10 µM, first compound 0.00316 µM) was 4.27%. The viability, T/C (second compound 10 µM, first compound 0.01 µM) was 3.81%, the viability, T/C (second compound 10 µM, first compound 0.0316 µM) was 3.35% and the viability, T/C (second compound 10 µM, first compound 0.1 µM) was 2.96%.
